# According to the RepoRT retention time repository (doi:10.1021/es4044374):
# Test: RP, Waters XBridge C18, 50 × 2.1 mm, 3.5 µm, 30 °C, 0.2 mL/min, estimated dead time 0.55 min; A: water + 0.1% formic acid, pH 3; B: methanol + 0.1% formic acid, pH 3; gradient (min/%B) 0/10 4/50 17/95 25/95 25.1/10 30/10
# Conditions: stereoisomer not certain
row,SMILES,LC retention time [min]
1,COCC(=O)Nc1c(I)c(C(=O)NCC(O)CO)c(I)c(C(=O)N(C)CC(O)CO)c1I (centres undefined) [Iopromide],2.7
2,CC(=O)Nc1c(I)c(C(=O)O)c(I)c(C(=O)NCCO)c1I [Ioxitalamic acid],1.3
3,N#Cc1cc(I)c(O)c(I)c1 [Ioxynil],9.3
4,Cc1ccc(C(C)NC(=O)C(NC(=O)OC(C)C)C(C)C)cc1 (centres undefined) [Iprovalicarb],11.4
5,CCCCC1=NC2(CCCC2)C(=O)N1Cc1ccc(-c2ccccc2-c2nn[nH]n2)cc1 [Irbesartan],9.2
6,CSc1nc(N)nc(NC(C)(C)C)n1 [Irgarol-descyclopropyl],6.7
7,CSc1nc(NC2CC2)nc(NC(C)(C)C)n1 [Irgarol],9.2
8,CC(C)c1ccc(NC(N)=O)cc1 [Isoproturon-didemethyl],8
9,CNC(=O)Nc1ccc(C(C)C)cc1 [Isoproturon-monodemethyl],8.6
10,CC(C)c1ccc(NC(=O)N(C)C)cc1 [Isoproturon],8.7
11,CNC1(c2ccccc2Cl)CCCCC1=O (centres undefined) [Ketamine],4.6
12,CC(C(=O)O)c1cccc(C(=O)c2ccccc2)c1 (centres undefined) [Ketoprofen],9.6
13,CON=C(C(=O)OC)c1ccccc1COc1ccccc1C [Kresoxim-methyl],12.5
14,Nc1nnc(-c2cccc(Cl)c2Cl)c(N)n1 [Lamotrigine],5.4
15,O=c1[nH]c2c(c(=O)n1C1CCCCC1)CCC2 [Lenacil],8.6
16,c1ccc(C2CN3CCSC3=N2)cc1 (centres undefined) [Levamisole],2.9
17,CCC(C(N)=O)N1CCCC1=O (centres undefined) [Levetiracetam],3
18,CCN(CC)CC(=O)Nc1c(C)cccc1C [Lidocaine],4.2
19,CON(C)C(=O)Nc1ccc(Cl)c(Cl)c1 [Linuron],10
20,Cc1cc(Cl)ccc1OCC(=O)O [MCPA],9.5

row,SMILES,LC retention time [min]
1,Cc1cc(Cl)ccc1OCCCC(=O)O [MCPB],11.9
2,Cc1cc(Cl)ccc1OC(C)C(=O)O (centres undefined) [Mecoprop],10.8
3,Cc1cccc(Nc2ccccc2C(=O)O)c1C [Mefenamic acid],14.5
4,CNC(C)C(=O)c1ccc(C)cc1 (centres undefined) [Mephedrone],4.3
5,CS(=O)(=O)c1ccc(C(=O)C2C(=O)CCCC2=O)c([N+](=O)[O-])c1 [Mesotrione],6.2
6,COCC(=O)N(c1c(C)cccc1C)C(C)C(=O)OC (centres undefined) [Metalaxyl],8.7
7,Cc1nnc(-c2ccccc2)c(=O)[nH]1 [Metamitron-desamino],5.1
8,Cc1nnc(-c2ccccc2)c(=O)n1N [Metamitron],4.9
9,Cc1cccc(C)c1N(Cn1cccn1)C(=O)CS(=O)(=O)O [Metazachlor ESA],5.5
10,Cc1cccc(C)c1N(Cn1cccn1)C(=O)C(=O)O [Metazachlor OXA],5.5
11,Cc1cccc(C)c1N(Cn1cccn1)C(=O)CCl [Metazachlor],8.5
12,CN(C)C(=N)N=C(N)N [Metformin],0.8
13,CCC(=O)C(CC(C)N(C)C)(c1ccccc1)c1ccccc1 (centres undefined) [Methadone],8.4
14,CNC(C)Cc1ccccc1 (centres undefined) [Methamphetamine],3.7
15,CNC(=O)Oc1cc(C)c(S(C)=O)c(C)c1 (centres undefined) [Methiocarb-sulfoxide],4.9
16,CNC(=O)Oc1cc(C)c(SC)c(C)c1 [Methiocarb],10.4
17,CNC(=O)ON=C(C)SC [Methomyl],3.6
18,COc1cccc(C(=O)NN(C(=O)c2cc(C)cc(C)c2)C(C)(C)C)c1C [Methoxyfenozide],10.9
19,CC1CC2C(C(O)CC3(C)C2CCC3(O)C(=O)CO)C2(C)C=CC(=O)C=C12 (centres undefined) [Methylprednisolone],9.2
